# Data published in EP0603240B1, “SAFENING HERBICIDAL PYRAZOLYLSULFONYLUREAS” (priority 1991, dated 1993).
# Assays:
# Assay type in all cases: in vivo
# [1] = system: velvetleaf (Abutilon theophrasti); assay: Example 18, Procedure II: Herbicide No. 1 + ERADICANE (EPTC + R-25788) with auxiliary antidotes
# Description: (§1) Containers were filled and compacted with a fumigated silt loam top soil to a depth of about 1.3 cm from the top of the container. A first container was designated as an untreated control, a second container was designated as a herbicide control, and a third container was designated as a herbicide + antidote test container. Each of the containers was seeded with a crop species. A measured amount of herbicide dispersed or dissolved in acetone was applied to a measured quantity of soil. To this same quantity of soil treated with herbicide, there was added a measured amount of antidote dispersed or dissolved in acetone. The quantity of soil treated with the herbicide and antidote was thoroughly mixed to incorporate the herbicide and antidote in the soil uniformly. The seed bed in the third container of soil was covered with the soil treated with the herbicide and antidote and the container was leveled. For each test series, the seed beds of the first and second containers were likewise covered by soil layers. the cover layer of the first container was not treated with herbicide or antidote.
# (§2) The containers were then placed on a bench in a greenhouse and sub-irrigated as required for the duration of the test. […] Plant response is measured in terms of percent injury. Antidote efficacy is indicated as the difference in plant injury by the herbicide(s) without the antidote and with the antidote.
# (§3) This procedure is the same as Procedure I, but modified in the manner that after incorporation of the chemicals (herbicide and antidote) the containers with the covered seedbed were treated with an initial overhead irrigation equivalent to 0.6 cm rainfall, then subsequently sub-irrigated as required on greenhouse benches.
# (§4) In the series of greenhouse tests described below, for routine screening purposes the herbicide/antidote compositions were tested in crop/weed combinations involving corn as the crop and either or both of the weeds barnyardgrass (Echinochloa crusgalli), a monocotyledonous weed, and velvetleaf (Abutilon theophrasti), a dicotyledonous weed. In the tables below, these weeds are indicated by the symbols "BYG" and "VL", respectively.
# (§5) In the test reported in this example, the herbicidal composition was similar to that used in Example 16 in that Herbicide No. 1 was combined with EPTC (Herbicide No. 4) as a co-herbicide and the antidotes included Nos. 1, 2, 7, 13 and 15. However, in this test the EPTC was introduced as a formulation of ERADICANE (EPTC + the antidote R-25788, i.e., Antidote No. 1) at an application rate of 8.96 kg/ha. Thus, in this test two antidotes were present, viz. R-25788 and one of the auxilliary antidotes, No. 2, 13 and 15.
# (§6) Test procedures were those of Procedure II above.
# [2] = system: barnyardgrass (Echinochloa crusgalli); assay: as above
# Description: as §1, §2, §3, §4, §5, §6
# [3] = system: corn; assay: Example 19, Procedure II: Herbicide No. 1 + ERADICANE EXTRA with added antidotes
# Description: as §1, §2, §3, §5
# The test reported in this example was performed in the same manner and with the same antidotes used in Example 18, the only difference being the substitution of the commercial herbicidal product ERADICANE® EXTRA for ERADICANE®. ERADICANE EXTRA is a formulation containing both an antidote, i.e., R-29148 (Antidote No. 5 herein), and an extender, dietholate.
# [4] = system: Giant foxtail (Setaria fabergi); assay: Example 24, Procedure II: Herbicide No. 1 + co-herbicides Nos. 4, 6, 7, 12 with Antidote Nos. 15 and 17-21
# Description: as §1, §2, §3
# (§7) In other greenhouse tests, using Procedure II described above, the safening efficacy of Antidote Nos. 15 and 17-21 was evaluated against Herbicide No. 1 in corn in the presence of Giant foxtail (Setaria fabergi) and Velvetleaf (Abutilon theophrasti) as representative annual monocotyledonous and dicotyledonous weeds, respectively.
# (§8) Test results are shown in Tables 23A and 23B wherein the indicated plant inhibition represents the average of duplicate replications, with observations being made thirteen (13) days after application of the chemicals. Giant foxtail and Velvetleaf are represented by the symbols "GFT" and "VL", respectively. The data in Table 23A show the test results using the antidotes at 2.24 kg/ha, whereas in Table 23B, the antidotal rate was reduced to 0.56 kg/ha.
# (§9) The tests described in Example 23 were duplicated, but in this example a variety of co-herbicides were included to ascertain the efficacy of the antidotes against combinations of Herbicide No. 1 and Herbicides Nos. 4, 6, 7 and 12 as co-herbicides. Test results are shown in Table 24, wherein the antidote application rate was 2.24 kg/ha.
# [5] = system: velvetleaf (Abutilon theophrasti); assay: as above
# Description: as §1, §2, §3, §7, §8, §9
# [6] = Herbicide No.1 0.56 kg/ha + ERADICANE 8.96 kg/ha, no added antidote
# [7] = Herbicide No.1 0.56 kg/ha alone
# [8] = Herbicide No.1 1.12 kg/ha + ERADICANE 8.96 kg/ha, no added antidote
# [9] = Herbicide No.1 1.12 kg/ha alone
# [10] = Herb. No. 1 0.07 Kg/ha + Co-Herb. No. 4 1.12 Kg/ha + antidote 2.24 Kg/ha
# [11] = Herb. No. 1 0.07 Kg/ha + Co-Herb. No. 6 0.14 Kg/ha + antidote 2.24 Kg/ha
# [12] = Herb. No. 1 0.07 Kg/ha + Co-Herb. No. 7 0.28 Kg/ha + antidote 2.24 Kg/ha
# [13] = Herb. No. 1 0.07 Kg/ha + Co-Herb. No. 12 0.28 Kg/ha + antidote 2.24 Kg/ha
# [14] = Herb. No. 1 0.14 Kg/ha + Co-Herb. No. 4 1.12 Kg/ha + antidote 2.24 Kg/ha
# [15] = Herb. No. 1 0.14 Kg/ha + Co-Herb. No. 6 0.14 Kg/ha + antidote 2.24 Kg/ha
# [16] = Herb. No. 1 0.14 Kg/ha + Co-Herb. No. 7 0.28 Kg/ha + antidote 2.24 Kg/ha
# [17] = Herb. No. 1 0.14 Kg/ha + Co-Herb. No. 12 0.28 Kg/ha + antidote 2.24 Kg/ha
# [18] = Herb. No. 1 0.28 Kg/ha + Co-Herb. No. 4 1.12 Kg/ha + antidote 2.24 Kg/ha
# [19] = Herb. No. 1 0.28 Kg/ha + Co-Herb. No. 6 0.14 Kg/ha + antidote 2.24 Kg/ha
# [20] = Herb. No. 1 0.28 Kg/ha + Co-Herb. No. 7 0.28 Kg/ha + antidote 2.24 Kg/ha
# [21] = Herb. No. 1 0.28 Kg/ha + Co-Herb. No. 12 0.28 Kg/ha + antidote 2.24 Kg/ha
# [22] = Herb. No. 1 0.56 Kg/ha + Co-Herb. No. 4 1.12 Kg/ha + antidote 2.24 Kg/ha
# [23] = Herb. No. 1 0.56 Kg/ha + Co-Herb. No. 6 0.14 Kg/ha + antidote 2.24 Kg/ha
# [24] = Herb. No. 1 0.56 Kg/ha + Co-Herb. No. 7 0.28 Kg/ha + antidote 2.24 Kg/ha
# [25] = Herb. No. 1 0.56 Kg/ha + Co-Herb. No. 12 0.28 Kg/ha + antidote 2.24 Kg/ha
compound,measurement,setting,value
COC(=O)c1c(Cl)nn(C)c1S(=O)(=O)NC(=O)Nc1nc(OC)cc(OC)n1 [No.1],% Injury VL,[1]; [6],80%
same,% Injury VL,[1]; [7],45%
same,% Injury VL,[1]; [8],75%
same,% Injury VL,[1]; [9],55%
same,% Injury BYG,[2]; [6],90%
same,% Injury BYG,[2]; [7],30%
same,% Injury BYG,[2]; [8],85%
same,% Injury BYG,[2]; [9],55%
same,% Injury Corn,"[3]; Herbicide No.1 0.56 kg/ha + ERADICANE EXTRA 8.96 kg/ha, no added antidote",30%
same,% Injury Corn,[3]; [7],20%
same,% Injury Corn,"[3]; Herbicide No.1 1.12 kg/ha + ERADICANE EXTRA 8.96 kg/ha, no added antidote",20%
same,% Injury Corn,[3]; [9],25%
"CC1(C)OC(c2ccco2)CN1C(=O)C(Cl)Cl (stereo not drawn) [Antidote No. 15, Oxazolidine, 3-(dichloroacetyl)-5-(2-furanyl)-2,2-dimethyl]",corn injury,"[3]; Herbicide No. 1 + ERADICANE EXTRA + added antidote, highest rates of antidotes and herbicides",25%
O=C(O)COC(c1ccccc1)c1ccccc1 [compound 18],% Inhibition GFT,[4]; [10],65%
same,% Inhibition GFT,[4]; [11],100%
same,% Inhibition GFT,[4]; [12],99%
same,% Inhibition GFT,[4]; [13],100%
same,% Inhibition GFT,[4]; [14],55%
same,% Inhibition GFT,[4]; [15],99%
same,% Inhibition GFT,[4]; [16],99%
same,% Inhibition GFT,[4]; [17],99%
same,% Inhibition GFT,[4]; [18],70%
same,% Inhibition GFT,[4]; [19],99%
same,% Inhibition GFT,[4]; [20],100%
same,% Inhibition GFT,[4]; [21],100%
same,% Inhibition GFT,[4]; [22],65%
same,% Inhibition GFT,[4]; [23],100%
same,% Inhibition GFT,[4]; [24],100%
same,% Inhibition GFT,[4]; [25],99%
same,% Inhibition VL,[5]; [10],90%
same,% Inhibition VL,[5]; [11],90%
same,% Inhibition VL,[5]; [12],90%
same,% Inhibition VL,[5]; [13],80%
same,% Inhibition VL,[5]; [14],95%
same,% Inhibition VL,[5]; [15],95%
same,% Inhibition VL,[5]; [16],95%
same,% Inhibition VL,[5]; [17],99%
same,% Inhibition VL,[5]; [18],95%
same,% Inhibition VL,[5]; [19],95%
same,% Inhibition VL,[5]; [20],95%
same,% Inhibition VL,[5]; [21],95%
same,% Inhibition VL,[5]; [22],90%
same,% Inhibition VL,[5]; [23],98%
same,% Inhibition VL,[5]; [24],98%
same,% Inhibition VL,[5]; [25],95%
